Measurements reported in patent US20160067221A1, “USE OF ERGOTHIONEINE FOR INDUCING ACTIVITY OF NRF2 IN CELL” (China Medical University, priority 2014, published 2016).

System: HaCaT cells
Experiment: Cell viability by MTT assay, with or without UVA irradiation
Type: cell-based, human
Method: To examine a safety of the ergothioneine and a safe used dose of the ergothioneine to normal cells, HaCaT cells, human keratinocyte cell lines, are treated with different dose of the ergothioneine and then detected a cell viability.
The HaCaT cells are maintained at 37° C. in a humidified atmosphere of 5% CO2 in a culture medium (Dulbecco's modified Eagle medium/high glucose (DMEM) supplemented with 10% heat-inactivated fetal bovine serum (FBS)).
The cell viability is monitored using a method of […] (MTT assay). The HaCaT cells are seeded in a 12-well plate with 1×10^5 cells/well and then maintained at 37° C. in a humidified atmosphere of 5% CO2 untill the HaCaT cells are adhered in the next day. The HaCaT cells are subsequently incubated with or without the ergothioneine, and then maintained at 37° C. in a humidified atmosphere of 5% CO2 for 24 hours, wherein the concentration of the ergothioneine is 125 nM, 250 nM and 500 nM, respectively. Next, the HaCaT cells are washed with phosphate buffered saline (PBS) three times, and then irradiated with the UVA (15 J/cm^2). After the UVA irradiation, the PBS is replaced with the culture medium to culture the HaCaT cells for 4 hours. In next step, the culture medium is removed, the HaCaT cells are washed with PBS thrice, and then 450 μL of 1×MTT agent is added in each well to react at 37° C. in a humidified atmosphere of 5% CO2 for 2 hours. A culture supernatant is removed and re-suspended with 400 μL of isopropanol to dissolve MTT formazan. 200 μL of the supernatant is taken from the well and then added into a 96-well microplate to measure an absorbance at 570 nm.
The cell viability of the HaCaT cells is detected by the MTT assay.

C[N+](C)(C)[C@@H](Cc1c[nH]c(=S)[nH]1)C(=O)[O-] [ergothioneine, 2-mercapto histidine trimethylbetain]
cell death at respective dose of UVA irradiation (500 nM for 2 hours, UVA 5-15 J/cm^2): significantly attenuated | cytotoxic effects (cell viability) (HaCaT cells, 125-500 nM, 24 hours): does not cause any cytotoxic effects | cell viability (pretreated with 500 nM, then UVA 15 J/cm^2, cultured 4 hours): 75.5% | UVA-induced cell death (pretreatment 125-500 nM, UVA 15 J/cm^2): attenuates a UVA-induced cell death in a dose-dependent manner
